Consider two compounds from BindingDB's records for doi:10.1021/acs.jmedchem.5b02042 (University of South Florida, 2016).

As a reminder, the Kd is the equilibrium constant for the complex coming apart. Low readings indicate higher affinity, high ones lower affinity.

The structures appear in SMILES notation.

The target in the test is Stromal cell-derived factor 1 (Homo sapiens, UniProt P48061). As to the kind of experiment: Binding affinity to His6-SUMO fusion tagged wild type human [U-15N]CXCL12 expressed in Escherichia coli by 2D 1H-15N HMQC NMR spectroscopy.
Chain of Stromal cell-derived factor 1 (P48061 whole entry, the tested form may be a part): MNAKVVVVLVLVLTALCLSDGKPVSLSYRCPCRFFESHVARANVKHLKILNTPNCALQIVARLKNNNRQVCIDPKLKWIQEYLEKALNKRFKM

For the compound `O=C(O)CC1c2ccccc2CCN1C(=O)Nc1cccc(F)c1` (configuration not stated), the affinity, expressed as Kd, was 4100 µM.

The compound `CCCOc1ccc(C(Nc2ccc(F)cc2)P(=O)(O)O)cc1` (configuration not stated) gave a Kd of 1100 µM.
